Source: PubChem BioAssay AID2060601 (Molecular Pharmacology Branch, DTP, NCI, 2025)
pIC50: −log10 of the molar value.

Test system: 874868-142-R-J2-PDC complex spheroids, growth % test/control
Test: Anticancer human tumor 874868-142-R-J2-PDC patient-derived head and neck squamous carcinoma cell line growth inhibition [CLK]
Conditions: for pIC50: curve of first compound; for viability, T/C: stronger effect = lower value
In short: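 Multi-cell-type spheroids combined patient-derived tumor cells with HUVEC endothelial cells and human mesenchymal stem cells. Paired agents were dosed in half-log steps down from about clinical Cmax, or from 10 microM where Cmax was unknown.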

[1] = second compound 0.0316 µM, first compound 0.0316 µM
[2] = second compound 0.0316 µM, first compound 0.1 µM
[3] = second compound 0.0316 µM, first compound 0.316 µM
[4] = second compound 0.0316 µM, first compound 1 µM
[5] = second compound 0.0316 µM, first compound 3.16 µM
[6] = second compound 0.0316 µM, first compound 10 µM
[7] = second compound 0.1 µM, first compound 0.0316 µM
[8] = second compound 0.1 µM, first compound 0.1 µM
[9] = second compound 0.1 µM, first compound 0.316 µM
[10] = second compound 0.1 µM, first compound 1 µM
[11] = second compound 0.1 µM, first compound 3.16 µM
[12] = second compound 0.1 µM, first compound 10 µM
[13] = second compound 0.316 µM, first compound 0.0316 µM
[14] = second compound 0.316 µM, first compound 0.1 µM
[15] = second compound 0.316 µM, first compound 0.316 µM
[16] = second compound 0.316 µM, first compound 1 µM
[17] = second compound 0.316 µM, first compound 3.16 µM
[18] = second compound 0.316 µM, first compound 10 µM
[19] = second compound 1 µM, first compound 0.0316 µM
[20] = second compound 1 µM, first compound 0.1 µM
[21] = second compound 1 µM, first compound 0.316 µM
[22] = second compound 1 µM, first compound 1 µM
[23] = second compound 1 µM, first compound 3.16 µM
[24] = second compound 1 µM, first compound 10 µM
[25] = second compound 3.16 µM, first compound 0.0316 µM
[26] = second compound 3.16 µM, first compound 0.1 µM
[27] = second compound 3.16 µM, first compound 0.316 µM
[28] = second compound 3.16 µM, first compound 1 µM
[29] = second compound 3.16 µM, first compound 3.16 µM
[30] = second compound 3.16 µM, first compound 10 µM
[31] = second compound 10 µM, first compound 0.0316 µM
[32] = second compound 10 µM, first compound 0.1 µM
[33] = second compound 10 µM, first compound 0.316 µM
[34] = second compound 10 µM, first compound 1 µM
[35] = second compound 10 µM, first compound 3.16 µM
[36] = second compound 10 µM, first compound 10 µM
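Also: spheroids exposed to the compounds for 7 days.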
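For viability, T/C in this document: 100% = DMSO vehicle control viability.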

Question: What does the source list for COc1ccc([C@@H](O)c2cc(-c3ncnc4cc(N5CCOCC5)ccc34)c(F)cc2Cl)nn1 + CN1CCN(c2cc(C(=O)Nc3cc4cc(-c5cnn(C)c5)ccc4cn3)ccn2)CC1?
Answer: pIC50 (second compound 0.0316 µM): 5.70; pIC50 (second compound 0.1 µM): 6.05; pIC50 (second compound 0.316 µM): > 7.50; pIC50 (second compound 1 µM): > 7.50; pIC50 (second compound 3.16 µM): > 7.50; pIC50 (second compound 10 µM): > 7.50; viability, T/C [1]: 83.6%; viability, T/C [2]: 77.9%; viability, T/C [3]: 74.9%; viability, T/C [4]: 70.4%; viability, T/C [5]: 36.1%; viability, T/C [6]: 32.6%; viability, T/C [7]: 71%; viability, T/C [8]: 62.7%; viability, T/C [9]: 64.5%; viability, T/C [10]: 48.8%; viability, T/C [11]: 30.9%; viability, T/C [12]: 30.3%; viability, T/C [13]: 17.3%; viability, T/C [14]: 12.2%; viability, T/C [15]: 13.4%; viability, T/C [16]: 9.3%; viability, T/C [17]: 14.9%; viability, T/C [18]: 13.4%; viability, T/C [19]: 0.18%; viability, T/C [20]: 0.23%; viability, T/C [21]: 2.66%; viability, T/C [22]: 0.22%; viability, T/C [23]: 0.24%; viability, T/C [24]: 0.33%; viability, T/C [25]: 0.22%; viability, T/C [26]: 0.16%; viability, T/C [27]: 3.99%; viability, T/C [28]: 0.25%; viability, T/C [29]: 0.23%; viability, T/C [30]: 0.35%; viability, T/C [31]: 0.06%; viability, T/C [32]: 0.15%; viability, T/C [33]: 2.92%; viability, T/C [34]: 0.15%; viability, T/C [35]: 0.22%; viability, T/C [36]: 3.6%

Question: CCCS(=O)(=O)Nc1ccc(F)c(C(=O)c2c[nH]c3ncc(-c4ccc(Cl)cc4)cc23)c1F + CNC(=O)c1ccc(Nc2nc(OC3CCCC3)c3c(-c4ccc5nc(C)oc5c4)c[nH]c3n2)c(OC)c1 was tested. Which pIC50 (second compound 0.0316 µM) did it give?
Answer: Its pIC50 is under 5.00.

Question: What about the pIC50 (second compound 0.1 µM) of the same compound?
Answer: Its pIC50 is under 5.00.

Question: What about the pIC50 (second compound 0.316 µM) of the same compound?
Answer: The pIC50 was under 5.00.

Question: And the pIC50 (second compound 1 µM)?
Answer: Its pIC50 is over 7.50.

Question: What about the pIC50 (second compound 3.16 µM) of the same compound?
Answer: Its pIC50 is over 7.50.

Question: And the pIC50 (second compound 10 µM)?
Answer: Its pIC50 is over 7.50.

Question: And the viability, T/C [1]?
Answer: The viability, T/C was 119%.

Question: And the viability, T/C [2]?
Answer: Its viability, T/C is 122%.

Question: And the viability, T/C [3]?
Answer: The viability, T/C was 133%.

Question: And the viability, T/C [4]?
Answer: The viability, T/C was 143%.

Question: What about the viability, T/C [5] of the same compound?
Answer: The viability, T/C was 139%.

Question: What about the viability, T/C [6] of the same compound?
Answer: Its viability, T/C is 87.8%.

Question: And the viability, T/C [7]?
Answer: Its viability, T/C is 101%.

Question: And the viability, T/C [8]?
Answer: The viability, T/C was 104%.

Question: What about the viability, T/C [9] of the same compound?
Answer: The viability, T/C was 110%.

Question: And the viability, T/C [10]?
Answer: Its viability, T/C is 144%.

Question: What about the viability, T/C [11] of the same compound?
Answer: Its viability, T/C is 140%.

Question: What about the viability, T/C [12] of the same compound?
Answer: Its viability, T/C is 84.6%.

Question: And the viability, T/C [13]?
Answer: The viability, T/C was 62.2%.

Question: And the viability, T/C [14]?
Answer: Its viability, T/C is 59.6%.

Question: And the viability, T/C [15]?
Answer: The viability, T/C was 59.6%.

Question: And the viability, T/C [16]?
Answer: The viability, T/C was 61.8%.

Question: What about the viability, T/C [17] of the same compound?
Answer: The viability, T/C was 67.9%.

Question: And the viability, T/C [18]?
Answer: Its viability, T/C is 53.2%.

Question: What about the viability, T/C [19] of the same compound?
Answer: The viability, T/C was 40.9%.

Question: And the viability, T/C [20]?
Answer: The viability, T/C was 38.2%.

Question: And the viability, T/C [21]?
Answer: Its viability, T/C is 46.8%.

Question: And the viability, T/C [22]?
Answer: The viability, T/C was 54.9%.

Question: And the viability, T/C [23]?
Answer: Its viability, T/C is 49.3%.

Question: And the viability, T/C [24]?
Answer: Its viability, T/C is 45.3%.

Question: And the viability, T/C [25]?
Answer: The viability, T/C was 41.2%.

Question: And the viability, T/C [26]?
Answer: Its viability, T/C is 38%.

Question: And the viability, T/C [27]?
Answer: The viability, T/C was 41.8%.

Question: And the viability, T/C [28]?
Answer: The viability, T/C was 38.8%.

Question: What about the viability, T/C [29] of the same compound?
Answer: The viability, T/C was 53.8%.

Question: And the viability, T/C [30]?
Answer: Its viability, T/C is 32%.

Question: And the viability, T/C [31]?
Answer: The viability, T/C was 38.8%.

Question: And the viability, T/C [32]?
Answer: Its viability, T/C is 44.1%.

Question: And the viability, T/C [33]?
Answer: Its viability, T/C is 50.2%.

Question: And the viability, T/C [34]?
Answer: The viability, T/C was 37.6%.

Question: What about the viability, T/C [35] of the same compound?
Answer: Its viability, T/C is 52.4%.

Question: And the viability, T/C [36]?
Answer: Its viability, T/C is 45.2%.

Question: Which results are given for COC1C=CCC(C)C(C)S(=O)(=O)NC(=O)c2ccc3c(c2)N(CC2CCC21)CC1(CCCc2cc(Cl)ccc21)CO3 (stereo unspecified) + CNC(=O)c1ccc(Nc2nc(OC3CCCC3)c3c(-c4ccc5nc(C)oc5c4)c[nH]c3n2)c(OC)c1?
Answer: pIC50 (second compound 0.0316 µM): 6.15; pIC50 (second compound 0.1 µM): 6.12; pIC50 (second compound 0.316 µM): 7.10; pIC50 (second compound 1 µM): > 7.50; pIC50 (second compound 3.16 µM): > 7.50; pIC50 (second compound 10 µM): > 7.50; viability, T/C [1]: 92.5%; viability, T/C [2]: 87.4%; viability, T/C [3]: 64.6%; viability, T/C [4]: 42.1%; viability, T/C [5]: 28.4%; viability, T/C [6]: 15.8%; viability, T/C [7]: 92.2%; viability, T/C [8]: 68%; viability, T/C [9]: 57.1%; viability, T/C [10]: 56.6%; viability, T/C [11]: 28%; viability, T/C [12]: 13.2%; viability, T/C [13]: 58.7%; viability, T/C [14]: 49.1%; viability, T/C [15]: 35.6%; viability, T/C [16]: 29.1%; viability, T/C [17]: 25%; viability, T/C [18]: 14.3%; viability, T/C [19]: 44.4%; viability, T/C [20]: 34.8%; viability, T/C [21]: 24.9%; viability, T/C [22]: 18.6%; viability, T/C [23]: 14.8%; viability, T/C [24]: 16.8%; viability, T/C [25]: 36.9%; viability, T/C [26]: 28.7%; viability, T/C [27]: 25.7%; viability, T/C [28]: 19.7%; viability, T/C [29]: 18.5%; viability, T/C [30]: 16.9%; viability, T/C [31]: 40.1%; viability, T/C [32]: 30.4%; viability, T/C [33]: 32.8%; viability, T/C [34]: 17.4%; viability, T/C [35]: 20.6%; viability, T/C [36]: 14.9%
